Test results taken from patent US4738803A, “Amino acid derivatives and their use as antidepressives and hypotensive agents” (priority 1981, dated 1988).
Where two headings read alike, the source gives them in different places.

Legend:
[1] = target: enkephalinase; test: Dosage of enkephalinasic (enkephalin dipeptidylcarboxypeptidasic) activity, effect of the inhibitors (striatal membrane fraction); format: biochemical, rat or mouse; details: 10 nM leucine-enkephalin ^3H, 0.1 mM puromycine, pH 7.4, 25° C, 15 min; read-out: 50% inhibitory concentration
Description: (I) Dosage of the "enkephalinasic" activity (enkephalin dipeptidylcarboxypeptidasic) and determination of the effect of the inhibitors
The enzyme preparation employed is a membrane fraction from the striatum of the rat or mouse.
This fraction is obtained by homogenization at 4° C. in 20 volumes of Tris-Hl buffer 0.05M (pH 7.4) followed by two successive centrifugations (1000 g×min. and 200,000 g×min.) at the end of which the sediment of the second centrifugation is retained. It is washed by resuspension in 10 ml of the buffer followed by centrifugation (200,000 g×min.) and the resulting sediment is in turn washed superficially to complete the removal soluble enzymes. The resulting membrane fraction is taken up into the buffer at 4° C. to obtain a suspension comprising about 1.5 mg of proteins per ml.
An aliquot sample (50 μl) of the membrane suspension is then incubated in a final volume of 100 μl at 25° C. in the presence of 10 nM leucine-enkephalin ^3 H (39 Ci/mmole), previously purified by column chromatography over Porapak Q(100-120 mesh, Waters Assoc.) and 0.1 mM puromycine, an aminopeptidase inhibitor. The incubation time is generally set at 15 min. so as to determine the initial rate of formation of tripeptide Tyr-Gly-Gly-^3 H caracteristic of the enkephalin dipeptidylcarboxypeptidasic (enkephalinasic) activity. The reaction is terminated by the addition of 25 μl of 0.2N HCl and the tripeptide is isolated by column chromatography over Polopak Q or on a thin layer of silica, according to the methods described by Malfroy et al (B. Malfroy, J. P. Swerts, C. Llorens and J. C. Schwartz, Neuro-Science Letters, 11, 329, 1979).
The results obtained with either method have always been consistent.
Determination of the radioactivity of the tripeptide is effected by liquid scintillation spectrometry.
The effect of the inhibitors is established by experiments with increasing concentrations of such materials, which leads to the determination of the 50% inhibitory concentrations calculated by means of data according to the method of Parker and Waud (J. Pharmacol. Exper. Ther. 177, 1, 1971). In some cases, the competitive nature of the inhibition was established by incubation experiments with a fixed concentration of the inhibitor and increasing concentrations of the substrate.

[2] = system: mice; test: Subacute toxicity, intraperitoneal, three weeks
Description: The derivative 63 was administered by the intraperitoneal route for three weeks to mice at the dose of 50 mg/kg three times a day (150 mg/kg/day).

[3] = system: licking reflex of mice on a plate heated at 55° C; test: Hot plate test: potentiation of the antalgic effect of D Ala2 Met Enkephalin; format: in vivo; details: for increase in the licking time with respect to animals treated with DAla2 Met Enkephalin (0.3γ intraventricular): 30 mg/kg intravenous; for antagonism of the potentiating effect by Naloxone / potentiation of the effect of a subactive dosage (0.3γ) of D Ala2 Met Enkephalin: 30γ, in words; for potentiation of the effect of a subactive dosage (0.3γ) of D Ala2 Met Enkephalin: p<0.05
Description: (§1) Licking reflex of mice on a plate heated at 55° C. according to the method of Jacob et co-workers (Arch. Int. Pharmacodyn. 122, 287-300, 1959: 133, 296-300, 1961).
(a) Potentiation of the antalgic effect of DAla2 Met Enkephalin:
(α) By the intraventricular route (ivt):
(β) By the intravenous route:
When administered by the intravenous route, the derivatives No. 2, 30 and 63 at the dose of 30 mg/kg produce a 100% increase in the licking time with respect to animals treated with DAla2 Met Enkephalin (0.3γ intraventricular).

[4] = system: licking reflex of mice on a plate heated at 55° C; test: Hot plate test: specific antalgic effect; format: in vivo; details: for antalgic effect in the hot plate test: 55° C, intravenous, in words; for ED50: hot plate 55° C, i.v.
Description: as §1
(b) Specific antalgic effect
By the intravenous route.

[5] = system: withdrawal of the tail of mice; test: Withdrawal of the tail immersed in water heated to 48° C; format: in vivo
Description: (2) Test in mice of the withdrawal of the tail immersed in water heated to 48° C. according to the method of Sewell and Spencer (Neuropharmacology, 1976, 15, p. 683-688).

[6] = system: phenylbenzoquinone-induced pain; test: Phenylbenzoquinone or "writhing" test; format: in vivo, mouse; details: for protection from phenylbenzoquinone-induced pain: p<0.01 versus controls
From the text: (3) Phenylbenzoquinone or "writhing" test according to the method of Siegmund and co-workers (Proc. Soc. Expert Biol. Med. 1957, 95, 729-731).
Here again, if the antinociceptive effects of these compounds are compared with those of Thiorphan, a selective enkephalinase-inhibitor, a distinctly greater maximum effect is observed. […] This more pronounced analgesic effect is attributable to an improved protection of the endogenic opioid peptides, in relation with the inhibition not only of the enkephalinase, but also of the aminopeptidases involved in their hydrolysis.

[7] = system: (Met^5) enkephalin liberated by depolarisation of striatum sections; test: Protection of endogenic enkephalins liberated by depolarisation of striatum sections; format: cell-based, rat; details: for (Met^5) liberated enkephalin: 50 mM KCl, no inhibitor: 120 ± 25
Description: (II) Protection of the endogenic […] liberated by depolarisation of the brain sections
Stratium sections of the rat are incubated in a medium of Krebs-Ringer and the (Met^5) enkephalin liberated by addition of 50 mM KCl is evaluated by radioimmunologic dosage (Patey and Coll., Science, 1981, 212, 1153-1155).
The higher protection of the liberated enkephalins afforded by these compounds is thence attributed to the inhibition of peptidases (probably aminopeptidases) other than those which are sensitive to thiorphan.

[8] = system: immobile periods of mice; details: 1 mg/kg i.v.; p<0.001; in words
From the text: Forced swimming or "Mice Despair" test according to Porsolt's method.
This test is representative of an antidepressive effect.

[9] = system: blood pressure; details: 10 mg/kg intravenous; in words
From the text: (VI) Hypotensive Activity
Specific enkephalin-potentiating activity, (Laubie M. Schmith H., Vincent M., Remon D. Central cardiovascular effects of Morphinometic peptides in dogs. European Journal of Pharmacology, vol. 46, 67-71, 1977).

[10] = 30 mg/kg intravenous, DAla2 Met Enkephalin 10 to 30γ/mouse ivt 15 minutes later
[11] = 30 γ/mouse ivt, D Ala2 Met Enkephalin 0.3 γ/mouse

N-[2-(N-hydroxy carbamoyl 3-phenyl propanoyl]-glycine [Derivative 32]
IC50 [1]: 5 nM

O=CN(O)CC(Cc1ccccc1)C(=O)NCC(=O)NCc1ccc(F)cc1 (stereo not drawn) [Derivative 63, N-(N-hydroxy 3-formamido 2-benzylpropanoyl)-glycine p-fluoro benzylamide]
weight increase rate and signs of toxicity ([2]; 50 mg/kg i.p. three times a day (150 mg/kg/day)): did not exhibit any change in the weight increase rate or any sign of toxicity | weight of the organs and anatomic-pathologic examination ([2]; 50 mg/kg i.p. three times a day, versus solvent controls): no difference

N-(2-bensyloxyamino 3-phenyl propanoyl)-glycine isoamylamide [Derivative 22]
IC50 [1]: 100 nM | increase in the licking time with respect to animals treated with DAla2 Met Enkephalin (0.3γ intraventricular) [3]: 100% | antalgic effect in the hot plate test [4]: have an antalgic effect | ED50 [4]: 18 mg/kg | potentiation of DAla2 Met Enkephalin [5, 10]: potentiate very significantly | protection from phenylbenzoquinone-induced pain ([6]; 18 mg/kg i.v.): protect the treated animals from phenylbenzoquinone-induced pain | antagonism of the protective effect by Naloxone ([6]; in words): antagonized by Naloxone

COC(=O)CC(=O)NC(Cc1ccccc1)NP(=O)(O)O (stereo not drawn) [Derivative 4, N-phosphoryl, N'-(2-methoxycarbonylacetyl) 1,1-diamino 2-phenyl ethane]
IC50 [1]: 100 nM

O=CN(O)CC(Cc1ccccc1)NC(=O)CC(=O)NCc1ccccc1 (stereo not drawn) [Derivative 71]
IC50 [1]: 200 nM

N-phorphoryl L-alanine-thioproline trifluoroethyl ester [Derivative 21]
IC50 [1]: 8 nM | (Met^5) liberated enkephalin ([7]; added inhibitor 10^-6 M): 550 ± 40 pmol/g/min | antagonism of the potentiating effect by Naloxone ([3]; intraventricular): antagonised by Naloxone | potentiation of the effect of a subactive dosage (0.3γ) of D Ala2 Met Enkephalin ([3]; intraventricular): significantly potentiated | % increase in the licking time with respect to animals treated with D Ala2 Met enkephalin ([3]; 30 γ/mouse ivt + D Ala2 Met Enkephalin 0.3 γ/mouse + Naloxone 10 mg/kg s.c.): 18% | % increase in the licking time with respect to animals treated with D Ala2 Met enkephalin [3, 11]: 350%

O=CN(O)CC(Cc1ccccc1)NC(=O)CC(=O)O (stereo not drawn) [Derivative 69]
IC50 [1]: 7 nM

N-(N-benzyloxy 3-formamido 2-benzyl propnaoyl)-glycine methyl ester [Derivative 39]
IC50 [1]: 3 nM | (Met^5) liberated enkephalin ([7]; added inhibitor 10^-7 M): 630 ± 50 pmol/g/min | % increase in the licking time with respect to animals treated with D Ala2 Met enkephalin [3, 11]: 300% | ED50 [4]: 25 mg/kg

N-[2-(N-hydroxy carbamoyl) 3-phenyl propanoyl]-glycine methyl ester [Derivative 30]
IC50 [1]: 3 nM | (Met^5) liberated enkephalin ([7]; added inhibitor 10^-7 M): 600 ± 30 pmol/g/min | antagonism of the potentiating effect by Naloxone ([3]; intraventricular): antagonised by Naloxone | potentiation of the effect of a subactive dosage (0.3γ) of D Ala2 Met Enkephalin ([3]; intraventricular): significantly potentiated | % increase in the licking time with respect to animals treated with D Ala2 Met enkephalin [3, 11]: 320%

N-[2-(N-hydroxy β-trifluoroethyl carboxamido)3-phenyl propanoyl]-glycine [Derivative 53]
IC50 [1]: 50 nM | increase in the licking time with respect to animals treated with DAla2 Met Enkephalin (0.3γ intraventricular) [3]: 100% | antalgic effect in the hot plate test [4]: have an antalgic effect | ED50 [4]: 3 mg/kg | potentiation of DAla2 Met Enkephalin ([5]; 5 mg/kg): also observed | protection from phenylbenzoquinone-induced pain ([6]; 1 mg/kg i.v.): protect the treated animals from phenylbenzoquinone-induced pain | antagonism of the protective effect by Naloxone ([6]; in words): antagonized by Naloxone | duration (in seconds) of the immobile periods with respect to the controls [8]: significantly reduces | reduction in the blood pressure [9]: reduction in the blood pressure

O=C(O)CNC(=O)C(CS)Cc1ccccc1 (stereo not drawn) [Thiorphan, reference compound]
(Met^5) liberated enkephalin ([7]; added inhibitor 10^-7 M): 280 ± 30 pmol/g/min | recovery of the pentapeptide ([7]; in words, presence of thiorphan): approximately doubled | elimination of the abdominal stretchings of the mouse ([6]; in words, thiorphan even at a heavy dose): never completely eliminates the abdominal stretchings

D Ala2 Met Enkephalin [reference compound]
activity of D Ala2 Met Enkephalin alone ([3]; 0.3 γ/mouse, intraventricular): inactive in itself

COC(=O)CNC(=O)[C@H](Cc1ccccc1)NP(=O)(O)O [Derivative 2, N-phosphoryl L-phenylalanine-glycine methyl ester]
IC50 [1]: 70 nM | increase in the licking time with respect to animals treated with DAla2 Met Enkephalin (0.3γ intraventricular) [3]: 100% | antalgic effect in the hot plate test [4]: have an antalgic effect | ED50 ([4]; Mus musculus, iv, read-out: ED50): 30 mg/kg | potentiation of DAla2 Met Enkephalin [5, 10]: potentiate very significantly | protection from phenylbenzoquinone-induced pain ([6]; 15 mg/kg i.v.): protect the treated animals from phenylbenzoquinone-induced pain | antagonism of the protective effect by Naloxone ([6]; in words): antagonized by Naloxone
